Data reported in patent US20050042716A1, “Allergen inactivating method, allergen inactivating filter, air treating apparatus, virus inactivating agent, virus inactivating method, virus inactivating filter, air conditoning unit and air conditioner” (priority 2003, published 2005).

Columns and labels:
mite allergen = assay: Mite allergen inactivation in mite extract, detected with DaniScan; assay type: biochemical
λ-phage = assay: Inactivation test of λ-phage in solution (plaque count on E. coli XL1-Blue MRF′); assay type: cell-based
M13 phage = assay: Inactivation test of M13 phage in solution (plaque count on E. coli JM109); assay type: cell-based; details: 9 M urea, 1 hour
Procedure: This solution was added in the 1.5 mL volume tube to prepare a protease treatment solution. […] This solution was added in the 1.5 mL volume tube to prepare an urea treatment solution. […] This solution was added in the 1.5 mL volume tube to prepare an urea/protease treatment solution. Each solution was incubated at 37° C. for 1 hour. After the incubation, 600 μL of PEG solution (20% PEG6000, 2.5M NaCl) was added, and the solution was allowed to stand in ice for 3 hours. […] After incubating the medium at 37° C. for 5 hours, the number of the plaques appeared was counted to determine pfu. […] Into this solution in the 1.5 mL volume tube, 0, 0.08, 0.8 and 8 μL each of pfu protease (manufactured by Takara Bio Co.) solution was added. […] Into this solution in the 1.5 mL volume tube, 0, 0.08, 0.8 and 8 μL each of pfu protease (manufactured by Takara Bio Co.) solution was added. […] Each treatment solution was incubated at 37° C. for 1 hour. After the incubation, 600 μL of PEG solution (20% PEG6000, 2.5M NaCl) was added, and the solution was allowed to stand in ice for 3 hours. […] After incubating the medium at 37° C. for 5 hours, the number of the plaques appeared was counted to determine pfu. […] After the incubation, 600 μL of PEG solution (20% PEG, 2.5M NaCl) was added, and the solution was allowed to stand in ice for 3 hours. […] After incubating the medium at 37° C. for 5 hours, the number of the plaques appeared was counted to determine pfu for evaluating the infection ability. The inactivation ratio of M13 phage was calculated from the results in Table 10, and is shown in the graph in FIG.

Cj-1 allergen = Cj-1 allergen (Cryptomeria japonica, UniProt P18632); assay: Electrophoresis and Western blotting with Cj-1 antibody; assay type: biochemical, cedar; details: for denaturation of Cj-1 protein (Western band): 5 N HCl, 60° C., 60 minutes
Chain of Cj-1 allergen (P18632 22-374): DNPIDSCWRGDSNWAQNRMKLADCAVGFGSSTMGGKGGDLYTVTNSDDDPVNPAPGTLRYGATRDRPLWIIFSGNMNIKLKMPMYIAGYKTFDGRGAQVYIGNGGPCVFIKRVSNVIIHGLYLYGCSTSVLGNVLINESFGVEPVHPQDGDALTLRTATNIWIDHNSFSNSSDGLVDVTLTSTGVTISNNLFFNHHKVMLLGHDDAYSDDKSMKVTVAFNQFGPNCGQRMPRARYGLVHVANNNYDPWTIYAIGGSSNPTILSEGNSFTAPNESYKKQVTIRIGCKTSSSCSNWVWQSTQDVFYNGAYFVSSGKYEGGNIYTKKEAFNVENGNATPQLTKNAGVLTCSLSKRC

cedar extract = assay: Electrophoresis of treated cedar extract (protein staining); assay type: biochemical
cedar antigen Cryj-2 = cedar antigen Cryj-2 (Cryptomeria japonica, UniProt P43212); assay: Electrophoresis of treated cedar antigen Cryj-2; assay type: biochemical; details: 10 μL 5 N HCL per 10 μL Cj-2 solution, 60° C., 60 minutes
Chain of cedar antigen Cryj-2 (P43212 46-433): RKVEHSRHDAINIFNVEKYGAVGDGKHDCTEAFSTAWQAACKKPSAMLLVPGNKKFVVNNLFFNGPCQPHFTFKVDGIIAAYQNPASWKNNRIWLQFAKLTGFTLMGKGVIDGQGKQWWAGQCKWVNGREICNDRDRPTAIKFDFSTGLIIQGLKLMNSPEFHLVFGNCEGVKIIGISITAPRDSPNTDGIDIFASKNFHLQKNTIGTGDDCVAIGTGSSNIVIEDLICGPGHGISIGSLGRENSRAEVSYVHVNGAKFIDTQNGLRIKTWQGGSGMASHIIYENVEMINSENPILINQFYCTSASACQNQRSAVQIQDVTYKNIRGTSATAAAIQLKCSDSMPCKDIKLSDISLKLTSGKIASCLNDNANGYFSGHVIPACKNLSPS

cedar antigen Cryj-1 = cedar antigen Cryj-1 (Cryptomeria japonica, UniProt P18632); assay: Electrophoresis of treated cedar antigen Cryj-1; assay type: biochemical; details: 10 μL 5 N HCL per 10 μL Cj-1 solution, 60° C., 60 minutes
Chain of cedar antigen Cryj-1 (P18632 22-374): as the sequence (P18632 22-374) above

[1] = 37° C., 1 hour, pfu protease S final 2%, 9 M urea

[Na+].[OH-] [alkali, sodium hydroxide]
mite allergen inactivation (DaniScan band) (mite allergen; 2.5 M sodium hydroxide, 40° C. and 60° C., 10 minutes): inactivated

NC(N)=O [Urea, urea]
Infection ability of λ-phage (λ-phage; 3 M urea, 37° C., treatment time 0 min): 9.4 × 10^7 pfu/ml | Infection ability of λ-phage (λ-phage; 3 M urea, 37° C., treatment time 15 min): 1.5 × 10^8 pfu/ml | Infection ability of λ-phage (λ-phage; 3 M urea, 37° C., treatment time 60 min): 1.1 × 10^8 pfu/ml | inactivation of λ-phage (in words) (λ-phage; 3 M urea, irrespective of the treatment time): not substantially inactivated | Infection ability of λ-phage (λ-phage; 9 M urea, 37° C., treatment time 0 min): 4 × 10^6 pfu/ml | Infection ability of λ-phage by adding 9 M urea (λ-phage; 9 M urea, 37° C., treatment time 0 min (Table 6)): 8.4 × 10^5 pfu/mL | Infection ability of λ-phage by adding 9 M urea (λ-phage; 9 M urea, 37° C., treatment time 7.5 min): 0 pfu/mL | Infection ability of λ-phage (λ-phage; 9 M urea, 37° C., treatment time 15 min): 0 pfu/ml | Infection ability of λ-phage by adding 9 M urea (λ-phage; 9 M urea, 37° C., treatment time 15 min (Table 6)): 0 pfu/mL | Infection ability of λ-phage by adding 9 M urea (λ-phage; 9 M urea, 37° C., treatment time 30 min): 0 pfu/mL | Infection ability of λ-phage (λ-phage; 9 M urea, 37° C., treatment time 60 min): 0 pfu/ml | Infection ability of λ-phage by adding 9 M urea (λ-phage; 9 M urea, 37° C., treatment time 60 min (Table 6)): 0 pfu/mL | inactivation of λ-phage (in words) (λ-phage; 9 M urea, treatment time of 15 minutes or more): completely inactivated | Infection ability of λ-phage (λ-phage; [1]): 0 pfu/mL | inactivation of λ-phage (in words) (λ-phage; [1]): inactivated | inactivation ratio of λ-phage (λ-phage; immediately after contacting 9 M urea): about 99.96% | inactivation ratio of M13 phage (M13 phage; 37° C.): about 50% | Infection ability of M13 phage (M13 phage; protease concentration 0, 37° C.): 6.3 × 10^9 | Infection ability of M13 phage (M13 phage; 37° C., pfu protease S final 2%): 1.1 × 10^10 pfu/mL

Cl [acid, hydrochloric acid]
denaturation of Cj-1 protein (Western band) (Cj-1 allergen; Cj-1 solution): most of the cedar antigen Cj-1 protein was denatured | denaturation of Cj-1 protein (Western band) (Cj-1 allergen; cedar extract): most of the cedar antigen Cj-1 protein was denatured | denaturation of cedar proteins (bands) (cedar extract; 10 μL 5 N HCL per 10 μL cedar preparation, 60° C., 60 minutes): most of the proteins derived from cedar was denatured | denaturation of Cj-2 protein (bands) (cedar antigen Cryj-2): most of the cedar allergen Cj-2 protein was denatured | denaturation of Cj-1 protein (bands) (cedar antigen Cryj-1): most of the cedar allergen Cj-1 protein was denatured | mite allergen inactivation (DaniScan band) (mite allergen; 2.5 M hydrochloric acid, 60° C., 60 minutes): most of the allergen is inactivated

B1: papain: purified edible papain manufactured by Nagase Chemtechs Co. (protein, UniProt P00784 134-345, looked up)
Papain: IPEYVDWRQKGAVTPVKNQGSCGSCWAFSAVVTIEGIIKIRTGNLNEYSEQELLDCDRRSYGCNGGYPWSALQLVAQYGIHYRNTYPYEGVQRYCRSREKGPYAAKTDGVRQVQPYNEGALLYSIANQPVSVVLEAAGKDFQLYRGGIFVGPCGNKVDHAVAAVGYGPNYILIKNSWGTGWGENGYIRIKRGTGNSYGVCGLYTSSFYPVKN
inactivation of Cj-1 allergen (Western band) (Cj-1 allergen; cedar extract, 3 μL (0.2 g/mL) papain, 40° C., 15 minutes): completely inactivated | decomposition of cedar proteins (bands) (cedar extract; 3 μL (0.2 g/mL) papain solution, 40° C., 15 minutes): most of the cedar proteins had been decomposed
